Publication PMC4008786, “Molecular Characterization, Expression Pattern, and Ligand-Binding Property of Three Odorant Binding Protein Genes from Dendrolimus tabulaeformis” (Journal of Chemical Ecology, 2014)
Read-outs that look alike come from different tables or passages of the source.

What was measured:
DtabGOBP2 [1] = biological target: T1, DtabGOBP2 (Dendrolimus tabulaeformis, UniProt A0A059PCR0); test: Competitive fluorescence binding assay (displacement of 1-NPN), DtabGOBP2
Method: (§1) Emission fluorescence spectra were performed on an F-4500 fluorescence Spectrophotometer (Hitachi, Japan) at 25 °C with a 1 cm light path quartz cuvette and 5 nm slits for both excitation and emission. The protein was dissolved in 50 mM Tris–HCl buffer, pH 7.4, while ligands used in the binding assay were added as 1 mM methanol solutions. The fluorescence of the mixture was recorded after 5 min to allow the signal to stabilize.
(§2) To measure the affinity of the fluorescent ligand 1-NPN to DtabPBP1, DtabGOBP1, and DtabGOBP2, a 2 μM solution of the protein in 50 mM Tris–HCl, pH 7.4, was titrated with aliquots of 1 mM 1-NPN dissolved in methanol to a final concentration of 16 μM. The probe was excited at 337 nm, and emission spectra were recorded between 380 and 450 nm. To evaluate the effect of pH on the binding affinity of the three OBPs, we also measured their binding with 1-NPN at a pH range of 4.5–9.0. The displacement of 1-NPN by selected ligands was measured in competitive binding assays using both the protein and 1-NPN at 2 μM. The mixtures were titrated with 1 mM methanol solutions of each competitor over concentration ranges of 2–16 μM. The fluorescence of the mixture was recorded after 5 min. Dissociation constants for 1-NPN and the stoichiometry of binding were obtained from Scatchard plots of the binding data through processing the data with Prism software. For other competitor ligands, the dissociation constants were calculated from the corresponding IC50 values using the equation: Ki = [IC50]/(1 + [1 − NPN]/K1 − NPN), where [1-NPN] is the free concentration of 1-NPN and K1-NPN is the dissociation constant of the protein complex/1-NPN.
(§3) To understand the ligand binding properties of the three OBPs, we prepared the recombinant proteins. Figure S5 reports the expression and purification of them. Then, we performed competitive ligand-binding experiments using well established protocols for other insect OBPs (Ban et al. [2002], [2003b]; Guo et al. [2012]; He et al. [2010]; Zhou et al. [2009]) to investigate the specificity of the binding pocket in the three D. tabulaeformis OBPs. The probe was excited at 337 nm, and emission spectra were recorded between 380 and 450 nm. […] The three proteins DtabPBP1, DtabGOBP1, and DtabGOBP2 bind 1-NPN with dissociation constants 12.5 ± 1.7, 14.4 ± 2.6, and 8.5 ± 0.6, respectively (Fig. 4a).

DtabPBP1 [2] = biological target: T2, DtabPBP1 (Dendrolimus tabulaeformis, UniProt A0A059PCM8); test: Competitive fluorescence binding assay (displacement of 1-NPN), DtabPBP1
T2 sequence (A0A059PCM8 entry or part of it): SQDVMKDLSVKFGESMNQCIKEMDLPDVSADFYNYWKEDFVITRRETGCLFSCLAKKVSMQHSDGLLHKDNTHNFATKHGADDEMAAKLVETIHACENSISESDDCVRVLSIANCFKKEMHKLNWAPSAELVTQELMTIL
Method: as §1, §2, §3

DtabGOBP1 [3] = biological target: T3, DtabGOBP1 (Dendrolimus tabulaeformis, UniProt A0A059PCQ9); test: Competitive fluorescence binding assay (displacement of 1-NPN), DtabGOBP1; settings: for abnormal fluorescence binding curve (in words): 1-NPN fluorescence on addition of ligand
T3 sequence (A0A059PCQ9 entry or part of it): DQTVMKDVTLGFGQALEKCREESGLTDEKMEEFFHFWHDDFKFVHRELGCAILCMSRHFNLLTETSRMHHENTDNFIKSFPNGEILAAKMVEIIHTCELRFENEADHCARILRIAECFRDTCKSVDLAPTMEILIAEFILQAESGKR
Method: as §1, §2, §3

DtabPBP1 [4] = biological target: T2, DtabPBP1; test: Fluorescence titration of protein with 1-NPN (Scatchard plot), DtabPBP1; format: binding
Method: as §1
(§4) To measure the affinity of the fluorescent ligand 1-NPN to DtabPBP1, DtabGOBP1, and DtabGOBP2, a 2 μM solution of the protein in 50 mM Tris–HCl, pH 7.4, was titrated with aliquots of 1 mM 1-NPN dissolved in methanol to a final concentration of 16 μM. The probe was excited at 337 nm, and emission spectra were recorded between 380 and 450 nm. To evaluate the effect of pH on the binding affinity of the three OBPs, we also measured their binding with 1-NPN at a pH range of 4.5–9.0. The displacement of 1-NPN by selected ligands was measured in competitive binding assays using both the protein and 1-NPN at 2 μM. The mixtures were titrated with 1 mM methanol solutions of each competitor over concentration ranges of 2–16 μM. The fluorescence of the mixture was recorded after 5 min. […]
(§5) To understand the ligand binding properties of the three OBPs, we prepared the recombinant proteins. […] The probe was excited at 337 nm, and emission spectra were recorded between 380 and 450 nm. […]

DtabGOBP1 [5] = biological target: T3, DtabGOBP1; test: Fluorescence titration of protein with 1-NPN (Scatchard plot), DtabGOBP1; format: binding
Method: as §1, §4, §5

DtabGOBP2 [6] = biological target: T1, DtabGOBP2; test: Fluorescence titration of protein with 1-NPN (Scatchard plot), DtabGOBP2; format: binding
Method: as §1, §4, §5

[7] = DtabGOBP2, 1-NPN fluorescence at ligand max conc 16, protein and 1-NPN at 2 μM, pH 7.4
[8] = DtabPBP1, 1-NPN fluorescence at ligand max conc 16, protein and 1-NPN at 2 μM, pH 7.4
[9] = DtabGOBP1, 1-NPN fluorescence at ligand max conc 16, protein and 1-NPN at 2 μM, pH 7.4
[10] = 2 μM protein, 50 mM Tris–HCl pH 7.4, Scatchard plot, read-out: dissociation constant (Kd) of 1-NPN
[11] = pH 4.5–9.0, protein and 1-NPN at 2 μM
[12] = DtabGOBP2, 1-NPN fluorescence at ligand max conc 16, protein and 1-NPN at 2 μM, pH 7.4, read-out: %of max±SE
[13] = DtabPBP1, 1-NPN fluorescence at ligand max conc 16, protein and 1-NPN at 2 μM, pH 7.4, read-out: %of max±SE
[14] = DtabGOBP1, 1-NPN fluorescence at ligand max conc 16, protein and 1-NPN at 2 μM, pH 7.4, read-out: %of max±SE

T1 sequence (A0A059PCR0 entry or part of it): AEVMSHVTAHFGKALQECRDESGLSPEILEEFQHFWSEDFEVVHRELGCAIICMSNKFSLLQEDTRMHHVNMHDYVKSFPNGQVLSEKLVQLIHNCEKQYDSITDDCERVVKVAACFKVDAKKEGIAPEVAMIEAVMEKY

Row | Compound | %of max±SE (DtabGOBP2 [1]; [7]) | %of max±SE (DtabPBP1 [2]; [8]) | %of max±SE (DtabGOBP1 [3]; [9]) | activity at 16 µM (DtabGOBP2 [1]; [12]) | activity at 16 µM (DtabPBP1 [2]; [13]) | activity at 16 µM (DtabGOBP1 [3]; [14]) | further results
1 | CC1=CCC2C(C1)C2(C)C (single isomer, unassigned; (+)) [(+)-3-Carene, (+)-3-carene] | 84.3±0.9% | 85.3±1.7% | Abnormal |  |  |  | abnormal fluorescence binding curve (in words) (DtabGOBP1 [3]; DtabGOBP1): increased 1-NPN fluorescence
2 | C=C(C)C1CC=C(C)CC1 (single isomer, unassigned; (+)) [(+)-Limonene, (+)-limonene] | 88.0±1.3% | 94.4±0.4% | 78.2±1.1% |  |  |  | 
3 | c1ccc(Nc2cccc3ccccc23)cc1 [1-NPN] |  |  |  |  |  |  | Kd (DtabPBP1 [4]; [10]): 12.5 ± 1.7 µM; effect of pH on affinity for 1-NPN (in words) (DtabPBP1 [4]; [11]): rapid loss of affinity in acidic conditions; Kd (DtabGOBP1 [5]; [10]): 14.4 ± 2.6 µM; effect of pH on affinity for 1-NPN (in words) (DtabGOBP1 [5]; [11]): rapid loss of affinity in acidic conditions; Kd (DtabGOBP2 [6]; [10]): 8.5 ± 0.6 µM; effect of pH on affinity for 1-NPN (in words) (DtabGOBP2 [6]; [11]): rapid loss of affinity in acidic conditions
4 | CC1=CCC2CC1C2(C)C (stereo not drawn) [(-)-α-Pinene, (−)-α-pinene] | 90.8±0.4% | 85.4±0.4% | 96.4±0.3% |  |  |  | 
5 | C=C1CCC2CC1C2(C)C (stereo not drawn) [(-)-β-Pinene, (−)-β-pinene] | 83.2±1.1% | 80.7±0.5% | 82.8±1.0% |  |  |  | 
6 | CC/C=C\CCO [(Z)-3-Hexen-1-ol, (Z)-3-hexen-1-ol] |  |  |  |  |  |  | activity at 16 µM (DtabGOBP2 [1]; pH 7.4, read-out: %of max±SE): 90.8 ± 0.6%; activity at 16 µM (DtabPBP1 [2]; pH 7.4, read-out: %of max±SE): 94.6 ± 0.2%; activity at 16 µM (DtabGOBP1 [3]; pH 7.4, read-out: %of max±SE): 96.5 ± 1.4%
7 | C=C1C2CCC(C2)C1(C)C (stereo not shown) [Camphene, camphene] |  |  |  |  |  |  | activity at 16 µM (DtabGOBP2 [1]; pH 7.4, read-out: %of max±SE): 93.8 ± 0.7%; activity at 16 µM (DtabPBP1 [2]; pH 7.4, read-out: %of max±SE): 96.5 ± 0.2%; activity at 16 µM (DtabGOBP1 [3]; pH 7.4, read-out: %of max±SE): 96.7 ± 1.2%
8 | C=CC(C)(O)CCC=C(C)C (stereo not shown) [Linalool, linalool] |  |  |  | 95.2 ± 0.6% | 90.4 ± 0.7% | 90.4 ± 0.9% | 
9 | CC1=CCC(=C(C)C)CC1 [Terpinolene, terpinolene] |  |  |  | 85.3 ± 1.8% | 90.3 ± 0.2% | 100 ± 3.2% | 
10 | CCCC/C=C/C=C\CCCCOC(C)=O [Z5,E7-12:OAc, (5Z,7E)-5,7-dodecadien-1-yl acetate] |  |  |  | 66.2 ± 0.3% | 74.7 ± 1% | 67.9 ± 1.1% | 
11 | CCCC/C=C/C=C\CCCCO [Z5,E7-12:OH, (5Z,7E)-5,7-dodecadien-1-ol] |  |  |  | 65.6 ± 0.8% | 74.5 ± 0.6% | 81 ± 1% | 
12 | CCCC/C=C/C=C\CCCCOC(=O)CC [Z5,E7-12:OPr, (5Z,7E)-5,7-dodecadien-1-yl propionate] |  |  |  | 44.8 ± 0.7% | 44.5 ± 0.6% | 37.1 ± 0.5% | Ki (DtabGOBP2 [1]; DtabGOBP2): 2700 nM; binding affinity / displacement of 1-NPN (in words) (DtabGOBP2 [1]; DtabGOBP2): high binding affinities; Kd (DtabGOBP2 [1]; DtabGOBP2, calculated from IC50 of 1-NPN displacement, read-out: KD±SE): 2700 ± 300 nM; Ki (DtabPBP1 [2]; DtabPBP1): 3.61 µM; binding affinity / displacement of 1-NPN (in words) (DtabPBP1 [2]; DtabPBP1): high binding affinities; Kd (DtabPBP1 [2]; DtabPBP1, calculated from IC50 of 1-NPN displacement, read-out: KD±SE): 3.6 ± 0.3 µM; Ki (DtabGOBP1 [3]; DtabGOBP1): 1900 nM; binding affinity / displacement of 1-NPN (in words) (DtabGOBP1 [3]; DtabGOBP1): high binding affinities; Kd (DtabGOBP1 [3]; DtabGOBP1, calculated from IC50 of 1-NPN displacement, read-out: KD±SE): 1900 ± 200 nM
13 | CCCCCC/C=C\CCCCOC(C)=O [Z5-12:OAc, (Z)-5-dodecenyl acetate] |  | Abnormal | Abnormal | 66.6 ± 0.7% |  |  | abnormal fluorescence binding curve (in words) (DtabGOBP1 [3]; DtabGOBP1): increase in fluorescence at high concentrations
14 | CCCCCC/C=C\CCCCO [Z5-12:OH, (Z)-5-dodecenyl alcohol] |  |  |  | 67 ± 0.5% | 75.1 ± 0.2% | 77.2 ± 0.3% | 
15 | CC1=CC=C(C(C)C)CC1 [α-Terpinene, α-terpinene] |  |  |  |  |  |  | activity at 16 µM (DtabGOBP2 [1]; pH 7.4, read-out: %of max±SE): 93.2 ± 0.9%; activity at 16 µM (DtabPBP1 [2]; pH 7.4, read-out: %of max±SE): 86.7 ± 0.7%; activity at 16 µM (DtabGOBP1 [3]; pH 7.4, read-out: %of max±SE): 81.8 ± 1.3%
16 | C=CC(=C)CCC=C(C)C [β-Myrene, β-myrene] | 83.3±0.7% | 86.5±0.8% | 67.8±0.8% |  |  |  | 1-NPN displaced (DtabGOBP1 [3]; DtabGOBP1, at a max concentration of ligand): 30%
17 | CC1=CCC(C(C)C)=CC1 [γ-Terpinene, γ-terpinene] |  |  |  |  |  |  | activity at 16 µM (DtabGOBP2 [1]; pH 7.4, read-out: %of max±SE): 99.3 ± 0.4%; activity at 16 µM (DtabPBP1 [2]; pH 7.4, read-out: %of max±SE): 88.1 ± 0.3%; inhibition at 16 µM (DtabGOBP1 [3]; pH 7.4, read-out: 1-NPN displaced): 30%; activity at 16 µM (DtabGOBP1 [3]; pH 7.4, read-out: %of max±SE): 71.8 ± 0.7%
18 | (+)-α-pinene | 88.8±2.2% | 83.9±0.3% | 98.3±2.2% |  |  |  | 
19 | (−)-limonene [(-)-Limonene] | 94.1±0.8% | 93.8±0.6% | 80.5±1.1% |  |  |  | 
